Source: PMC7475896, “Ruthenium(II) and Iridium(III) Complexes as Tested Materials for New Anticancer Agents” (Materials, 2020)
Converted amounts (≈) assume the structure as drawn. “Also recorded” adds a separate entry of the source.

Legend:
[1] = system: normal mouse fibroblast (BALB/3T3) cell line; conditions: read-out: IC50 against normal BALB/3T3; cited from earlier work
[2] = in vitro cytotoxicity, SRB assay, normal BALB/3T3; assay type: cell-based, mouse; conditions: mouse, BALB/3T3 normal mouse fibroblast cells; compound concentration 10 μg/mL; normal cell line
Procedure: (§1) The cytotoxicity of the investigated complexes 1–3 was determined by microculture with sulforhodamine B SRB (all adherent cells) and MTT ([3-(4,5-dimethyl(thiazol-2-yl) -2,5-diphenyltetrazoliumbromide)]) (for cells in suspension (leukemia cells)) assays with the following three tumor cell lines: colorectal adenoma (LoVo), myelomonocytic leukemia (MV-4-11), and breast adenocarcinoma (MCF-7), as well as a healthy mouse fibroblast (BALB/3T3) cell line. The cytotoxicity of the compounds was measured using the methods described previously. […] The results for cisplatin, used as a test control, were presented in the form of IC50 value (this is the concentration of the compound causing the inhibition of cell proliferation of 50% of the cell population). The results were calculated from 2 to 3 independent experiments.

[3] = system: myelomonocytic leukaemia (MV-4-11) cell line; test: in vitro cytotoxicity, MTT assay, MV-4-11; assay type: cell-based
Procedure: as §1

[4] = molecular target: T1, human serum albumin (HSA) (Homo sapiens, UniProt P02768); test: HSA binding by UV-Vis spectroscopy; conditions: HSA 2 × 10^−5 M in Tris-HCl/NaCl buffer
T1 construct: purchased Sigma-Aldrich Chemie GmbH (Steinheim, Germany)
T1 sequence (P02768 25-609): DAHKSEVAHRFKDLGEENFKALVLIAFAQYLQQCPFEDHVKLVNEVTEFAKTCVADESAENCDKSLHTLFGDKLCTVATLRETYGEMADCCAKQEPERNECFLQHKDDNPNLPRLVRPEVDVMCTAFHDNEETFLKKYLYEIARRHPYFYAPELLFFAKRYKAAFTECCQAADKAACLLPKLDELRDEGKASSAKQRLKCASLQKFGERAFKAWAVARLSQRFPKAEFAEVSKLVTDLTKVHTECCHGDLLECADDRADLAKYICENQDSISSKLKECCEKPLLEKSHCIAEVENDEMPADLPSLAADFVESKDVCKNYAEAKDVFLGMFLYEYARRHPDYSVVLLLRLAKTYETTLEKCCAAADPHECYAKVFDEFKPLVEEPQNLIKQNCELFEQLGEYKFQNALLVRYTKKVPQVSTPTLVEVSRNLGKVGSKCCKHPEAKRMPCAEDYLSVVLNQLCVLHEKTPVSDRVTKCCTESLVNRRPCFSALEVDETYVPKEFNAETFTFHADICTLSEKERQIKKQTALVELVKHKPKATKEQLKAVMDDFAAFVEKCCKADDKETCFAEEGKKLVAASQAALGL
Procedure: (§2) Determination of log P values, and studies on the interactions of ruthenium(II) (1), iridium(III) complexes (2, 3) with CT-DNA, HSA and GSH, were performed according to the previous procedure published in the paper.
(§3) Because plasma albumins can interfere with anticancer compounds and change their biological activity, especially their cytotoxicity effectiveness, it is important to obtain insight into interactions of the analyzed complexes with HSA as a plasma protein. The UV-Vis spectra of HSA with increasing amounts of complexes show increasing of HSA absorbance without any shift (Figure 13 a–c). […] To detect any changes of the microenvironment or the conformations of HSA caused by the analyzed complexes, CD spectroscopy was used (Figure 13e,f). […] The noticeable, spectral changes indicate a partial unfolding of the protein structure, leading to the loss of its stability.
(§4) Figure 13 Changes in UV-Vis absorption spectra of HSA (2 × 10^−5 M) in Tris-HCl/NaCl buffer upon addition of 1 (a), 2 (b) and 3 (c) in different molar ratio and CD spectra of HSA incubated with 1 (d), 2 (e) and 3 (f) in different molar ratio.

[5] = system: normal mouse fibroblast (BALB/3T3) cell line; test: in vitro cytotoxicity, SRB assay, normal BALB/3T3; assay type: cell-based; conditions: for Cell viability [%] BALB/3T3: compound concentration 10 μg/mL, normal cell line
Procedure: as §1

[6] = system: breast adenocarcinoma (MCF-7) cell line; test: in vitro cytotoxicity, SRB assay, MCF-7; assay type: cell-based; conditions: concentration of 10 μg/mL
Procedure: as §1

[7] = lipophilicity (log P) determination; assay type: physicochemical
Procedure: as §2

[8] = molecular target: T1, human serum albumin (HSA); test: HSA conformation by CD spectroscopy; assay type: binding; conditions: free HSA 56%
Procedure: as §2, §3, §4

CT-DNA = test: DNA melting test by 3D CD; assay type: binding; conditions: 100 μM CT-DNA, Tris-HCl/NaCl pH 7.2; free CT-DNA Tm 55.2 ± 0.7 °C
Procedure: The melting profiles of DNA/complex mixtures were recorded on a Jasco J-815 spectropolarimeter (Kettenbrückengasse, Austria) equipped with a CDF-426S/15 Peltier temperature controller. CD melting experiments were performed using 100 μM CT DNA concentration, in the absence and presence of 100 equivalents of complexes (in Tris-HCl/NaCl buffer, pH 7.2). CD melting were performed at 5 °C/min heating rate in the 35–95 °C temperature range. Each spectrum was recorded in the 220–300 nm wavelength range, averaged over three scans and subtracting the buffer baseline. After each temperature change, the system was left to equilibrate for 3 min. From 3D data, we selected the proper wavelength (256 nm) and obtained a classic 2D melting profile (fraction folded vs. temperature). The melting temperatures (Tm) were mathematically calculated by using the curve fitting function in Origin 2020 software (OriginLab, Northampton, MA, USA). Tm values represent the melting temperature of the DNA with and without complexes.
To solve the problem of the mode of iridium-DNA binding, covalent and non-covalent, DNA melting experiments were conducted. […] The Tm of the tested solution was determined as the transition midpoint of the melting curve by monitoring the maximum of the ellipticity and absorbance as a function of temperature ranging from 35 to 95 °C. […]

[9] = glutathione deactivation experiment (Ellman method); assay type: biochemical; conditions: after 28 h incubation
Procedure: as §2
Comparing similar data of cell viability and IC50 for both iridium(III) complexes with GSH deactivation results, some correlation was observed.

[10] = catalytic oxidation of NADH to NAD+ (UV-Vis); assay type: biochemical; conditions: complex 1 µM, NADH 100 µM, 50% MeOH/50% H2O, 37 °C, 9 h
Procedure: The reaction of analyzed complexes (1 µM) with NADH (100 µM) in 50% MeOH/50% H2O (V:V) was examined by UV-Vis spectroscopy at 37 °C after various time intervals (0.5–9 h). The turnover number (TON) was calculated from the difference in NADH concentration after 9 h divided by the concentration of analyzed iridium complexes. The concentration of NADH was obtained using the extinction coefficient ε339 = 6220 M^−1cm^−1.
Figure 12 UV-Vis spectra for the catalytic oxidation of NADH (100 μM) to NAD^+ in the presence of complexes (1 μM) over a 9 h period in 50% MeOH/50% H2O (V:V) (inset: wavelength absorbance changes from 315-360 nm).

[11] = system: colorectal adenoma (LoVo) cell line; test: in vitro cytotoxicity, SRB assay, LoVo; assay type: cell-based; conditions: concentration of 10 μg/mL
Procedure: as §1

[12] = compound concentration 10 μg/mL

Molecule	HSA binding constant [4]	Cell viability [%] BALB/3T3 [5]	IC50 against MV-4-11 ([3]; MV-4-11 cell line)	Cell viability [%] MV-4-11 [3, 12]	log P [7]	α-helical structure of HSA under the influence of complex [8]	decrease of melting temperature (Tm) of CT-DNA (CT-DNA)	concentration of unreacted GSH remaining [9]	turnover number (TON) [10]	further results
[(η^6-p-cymene)RuCl(2,2′-PyBIm)]PF6										IC50 [1]: 43.7 µM
O=C(c1ccccn1)c1ccccn1 [py2CO, di-2-pyridylketone, reference compound]										viability at 10 µg/mL [2]: 95.5%; IC50 ([3]; Homo sapiens, MV4-11, MV-4-11 cell line, read-out: IC50 against MV-4-11): 62.9 µg/mL (≈ 341 µM); viability at 10 µg/mL ([3]; Homo sapiens, MV4-11, compound concentration 10 μg/mL): 98%
[(η^5-Cp)IrCl(py2CO)]PF6 [complex 2]	1.52 × 10^5	100%	40.2 µg/mL	68%	−1.14 ± 0.06	52%	approximately 0.5 °C	37 µM	3.3	inhibition of cell proliferation, MCF-7 [6]: 3.7%
N.N.[Cl][Pt][Cl] [cisplatin, reference compound]			0.27 µg/mL							
[(η^6-p-cymene)RuCl(py2CO)]PF6 [complex 1]	3.22 × 10^5		49.8 µg/mL	83%	−1.44 ± 0.11	51%				inhibition of cell proliferation, LoVo [11]: 1.4%
NH4[IrCl4(py2CO)]·H2O [complex 3]	6.54 × 10^4	98.6%	35.8 ± 13.9 µg/mL	68%	−0.30 ± 0.05	55%	~8.5 °C	37 µM	4.8	toxic effect against normal BALB/3T3 ([5]; result in words): without a toxic effect; also recorded: without any toxic effect
